Values joined by “and” are separate entries in the source; they are usually repeats but may differ in a detail not shown here. Equal entries are not always repeated.
Assays:
[1] = test system: pMEK levels in non-B-Raf^V600E lines; experiment: pMEK levels / Raf/MEK/ERK pathway induction by Raf inhibitors; assay type: cell-based
[2] = test system: C-RAF in A375 (B-RAFV600E) cells transfected with KRASG12D; experiment: C-RAF immunoprecipitation: kinase activity and B-RAF heterodimerization; assay type: cell-based; set-up: dose or concentration left out as unconfirmed; details: A375 transfected with mutant KRASG12D; dosed at 0.1, 1
Protocol: FIGS. 20A, B, C and D depict the importance of the role of active Ras plays in C-RAF activation and phospho-MEK induction by RAF inhibitors. (A) A375 (B-RAFV600E) cells were treated with GDC-0879 or PLX4720 for 1 hour and lysed in hypotonic buffer for membrane fractionation. Both membrane (P100) and cytosolic (S100) fractions were immunoblotted with the indicated antibodies. (B) MeWo cells were transiently transfected with KRASWT or KRASSI7N, treated with GDC-0879 or PLX4720 (at […]) for 1 hour and fractionated into membrane (P100) and cytosolic (S100) fractions. Aliquots of the membrane and cytosolic fractions were immunoblotted with anti-phospho- and anti-total MEK antibodies. (C) RAS-GTP levels were measured from lysates of MeWo (RAS/RAFWT), A375 (B-RAFV600E) and H2122 (KRASMT) cells with a Ras-GTP ELISA protocol using immobilized C-RAF-RBD as bait for capturing RAS-GTP. Relative luminescent units represent RAS detection of an anti-RAS antibody bound to the RBD. RAS-GTP H2122>>Mewo>A375. […] C-RAF was immunoprecipitated from control and inhibitor-treated cells and assayed for protein activity and B-RAF heterodimerization. Total C-RAF levels shown by WB in the immunoprecipitate indicate loading for each lane.

[3] = test system: WT Raf isoforms; experiment: Biochemical enzyme assay at physiological [ATP]
Text: FIG. 1 depicts Biochemical enzyme assay data.

[4] = test system: LXFA 983/9N4 (Lung, adeno); experiment: Oncotest Exp H331: growth of LXFA 983 lung tumor xenograft after dosing with B-RAF inhibitor; assay type: in vivo, mice; details: H331-2, 100 mg/kg/day, Days 0-21; for Absolute body weight, Median / Relative body weight, Median / Absolute tumor volume: (a*b*b)/2, Median / Relative tumor volume, Median: group median; for Absolute body weight, Median / Relative body weight, Median: n 10; for Absolute tumor volume: (a*b*b)/2, Median / Relative tumor volume, Median: n 15; for Relative tumor volume / Absolute tumor volume: (a*b*b)/2: individual tumors
Text: FIGS. 10-18 depict growth in lung tumor xenografts after dosing with GDC-0879.
The data are shown below, and in FIGS. 10-14 for Experiment H331 and FIGS. 15-18 for Experiment H327.

[5] = study day 3, individual animals, listed as G-026887
[6] = study day 3, listed as G-026887
[7] = study day 7, individual animals, listed as G-026887
[8] = study day 7, listed as G-026887
[9] = study day 10, individual animals, listed as G-026887
[10] = study day 10, listed as G-026887
[11] = study day 14, individual animals, listed as G-026887
[12] = study day 14, listed as G-026887
[13] = study day 17, individual animals, listed as G-026887
[14] = study day 17, listed as G-026887
[15] = study day 21, individual animals, listed as G-026887
[16] = study day 21, listed as G-026887

OCCn1cc(-c2ccc3c(c2)CC/C3=N\O)c(-c2ccncc2)n1 [GDC-0879, 2-{4-[(1E)-1-(hydroxyimino)-2,3-dihydro-1H-inden-5-yl]-3-(pyridine-4-yl)-1H-pyrazol-1-yl}ethan-1-ol]
effect on pMEK levels ([1]; after serum stimulation): Inhibitory effects of GDC-0879 predominate | effect on pMEK levels / c-Raf ([1]; basal conditions): bell-shaped curve | B-RAF:C-RAF heterodimers and C-RAF kinase activation [2]: induce B-RAF:C-RAF heterodimers and C-RAF kinase activation | potency in biochemical enzyme assay [3]: maintains effective potency | Survival time ([4]; individual animals, listed as G-026887): >22 days (6×) and >21 days (14×) | Absolute body weight, Median ([4]; study day 0): 27.5 g | Relative body weight, Median ([4]; study day 0): 100.0% | Absolute tumor volume: (a*b*b)/2, Median ([4]; study day 0): 117.2 mm3 | Relative tumor volume, Median ([4]; study day 0): 100.0% | Relative body weight ([4]; study day 0, individual animals): 100.0% | Absolute body weight ([4]; study day 0, individual animals, listed as G-026887): 27.2 g and 26.9 g and 27.3 g and 26.1 g and 29.4 g and 24.8 g and 31.2 g (2×) and 30.2 g and 27.6 g | Relative tumor volume ([4]; study day 0): 100.0% | Absolute tumor volume: (a*b*b)/2 ([4]; study day 0, listed as G-026887): 117.2 mm3 and 121.1 mm3 and 94.1 mm3 and 137.3 mm3 and 237.3 mm3 and 62.5 mm3 and 80.2 mm3 and 123.0 mm3 and 111.6 mm3 and 74.4 mm3 (2×) and 219.4 mm3 and 55.3 mm3 and 150.4 mm3 and 130.7 mm3 | Absolute body weight, Median ([4]; study day 3): 27.2 g | Relative body weight, Median ([4]; study day 3): 97.9% | Absolute tumor volume: (a*b*b)/2, Median ([4]; study day 3): 236.3 mm3 | Relative tumor volume, Median ([4]; study day 3): 211.7% | Absolute body weight [4, 5]: 26.8 g and 27.2 g and 26.7 g and 25.6 g and 27.9 g and 24.7 g and 29.4 g and 29.2 g and 27.1 g and 29.6 g | Relative body weight [4, 5]: 94.9% (2×) and 98.5% and 101.1% and 97.8% and 98.1% and 99.6% and 94.2% and 96.7% and 98.2% | Absolute tumor volume: (a*b*b)/2 [4, 6]: 265.6 mm3 and 166.6 mm3 and 188.5 mm3 and 239.1 mm3 and 546.2 mm3 and 176.4 mm3 and 210.9 mm3 and 268.8 mm3 and 236.3 mm3 and 156.8 mm3 and 392.9 mm3 and 119.1 mm3 and 310.7 mm3 and 295.9 mm3 and 83.2 mm3 | Relative tumor volume [4, 6]: 111.8% and 226.6% and 137.6% and 200.4% and 174.1% and 230.2% and 282.2% and 263.0% and 218.5% and 211.7% and 210.9% and 179.1% and 215.3% and 206.6% and 226.4% | Absolute body weight, Median ([4]; study day 7): 27.3 g | Relative body weight, Median ([4]; study day 7): 96.5% | Absolute tumor volume: (a*b*b)/2, Median ([4]; study day 7): 348.2 mm3 | Relative tumor volume, Median ([4]; study day 7): 293.3% | Absolute body weight [4, 7]: 26.3 g (2×) and 27.4 g and 25.7 g and 27.1 g and 24.2 g and 28.9 g and 28.1 g and 27.6 g and 29.3 g | Relative body weight [4, 7]: 93.9% and 96.7% and 101.9% and 96.3% and 98.5% and 92.2% and 97.6% and 92.6% and 93.0% and 100.0% | Absolute tumor volume: (a*b*b)/2 [4, 8]: 392.9 mm3 and 325.1 mm3 and 261.6 mm3 and 445.5 mm3 and 689.1 mm3 and 289.1 mm3 and 348.2 mm3 and 344.4 mm3 and 455.1 mm3 and 253.1 mm3 and 560.0 mm3 and 216.6 mm3 and 352.5 mm3 and 383.3 mm3 | Relative tumor volume [4, 8]: 152.3% and 335.2% and 268.5% and 278.0% and 324.4% and 290.4% and 462.6% and 434.2% and 280.0% and 407.8% and 340.4% and 255.3% and 391.6% and 234.4% | Absolute body weight, Median ([4]; study day 10): 27.3 g | Relative body weight, Median ([4]; study day 10): 97.9% | Absolute tumor volume: (a*b*b)/2, Median ([4]; study day 10): 406.6 mm3 | Relative tumor volume, Median ([4]; study day 10): 392.5% | Absolute body weight [4, 9]: 26.7 g (2×) and 26.9 g and 25.6 g and 27.6 g and 25.3 g and 29.1 g (2×) and 28.6 g (2×) | Relative body weight [4, 9]: 91.7% and 98.2% and 100.0% and 97.8% and 98.1% and 93.9% and 102.0% and 93.3% and 96.4% and 103.6% | Absolute tumor volume: (a*b*b)/2 [4, 10]: 431.7 mm3 and 379.3 mm3 and 329.5 mm3 and 539.0 mm3 and 964.8 mm3 and 404.0 mm3 and 612.5 mm3 and 525.4 mm3 and 528.2 mm3 and 302.6 mm3 and 570.0 mm3 and 348.5 mm3 and 372.6 mm3 and 406.6 mm3 | Relative tumor volume [4, 10]: 269.9% and 368.3% and 313.3% and 350.2% and 392.5% and 406.6% and 646.4% and 763.8% and 427.1% and 473.3% and 406.9% and 259.8% and 630.2% and 247.8% | Absolute body weight, Median ([4]; study day 14): 28.6 g | Relative body weight, Median ([4]; study day 14): 99.5% | Absolute tumor volume: (a*b*b)/2, Median ([4]; study day 14): 578.8 mm3 | Relative tumor volume, Median ([4]; study day 14): 580.3% | Absolute body weight [4, 11]: 26.8 g and 27.2 g and 28.2 g and 25.5 g and 29.1 g and 25.8 g and 29.4 g and 30.2 g and 28.9 g and 30.3 g | Relative body weight [4, 11]: 97.1% and 98.5% and 101.1% and 103.3% and 97.7% and 99.0% and 104.0% and 94.2% and 100.0% and 104.7% | Absolute tumor volume: (a*b*b)/2 [4, 12]: 578.8 mm3 and 655.5 mm3 and 545.9 mm3 and 574.3 mm3 and 1411.2 mm3 and 581.0 mm3 and 1115.4 mm3 and 951.3 mm3 and 891.1 mm3 and 318.2 mm3 and 597.5 mm3 and 390.2 mm3 and 510.0 mm3 and 499.4 mm3 | Relative tumor volume [4, 12]: 620.2% and 493.8% and 541.3% and 580.3% and 418.3% and 594.7% and 929.7% and 1390.9% and 773.4% and 798.5% and 427.9% and 272.4% and 705.6% and 339.1% | Absolute body weight, Median ([4]; study day 17): 28.8 g | Relative body weight, Median ([4]; study day 17): 100.8% | Absolute tumor volume: (a*b*b)/2, Median ([4]; study day 17): 742.6 mm3 | Relative tumor volume, Median ([4]; study day 17): 719.8% | Absolute body weight [4, 13]: 27.2 g and 27.6 g and 28.5 g and 25.8 g (2×) and 29.5 g (2×) and 30.6 g and 29.0 g and 30.7 g | Relative body weight [4, 13]: 98.4% and 100.0% and 102.6% and 104.4% and 98.9% and 100.3% and 104.0% and 94.6% and 101.3% and 105.1% | Absolute tumor volume: (a*b*b)/2 [4, 14]: 705.7 mm3 and 742.6 mm3 and 701.1 mm3 and 841.5 mm3 and 1708.0 mm3 and 642.0 mm3 and 1229.4 mm3 and 1327.1 mm3 and 1247.1 mm3 and 426.5 mm3 and 778.8 mm3 and 520.5 mm3 and 606.4 mm3 and 758.4 mm3 | Relative tumor volume [4, 14]: 860.5% and 602.1% and 613.3% and 745.2% and 612.8% and 719.8% and 1027.1% and 1533.1% and 1078.9% and 1117.5% and 573.5% and 355.0% and 941.4% and 403.2% | Absolute body weight, Median ([4]; study day 21): 29.0 g | Relative body weight, Median ([4]; study day 21): 103.5% | Absolute tumor volume: (a*b*b)/2, Median ([4]; study day 21): 958.8 mm3 | Relative tumor volume, Median ([4]; study day 21): 826.5% | Absolute body weight [4, 15]: 28.6 g and 27.5 g and 29.3 g and 26.9 g and 31.1 g and 26.6 g and 30.6 g and 31.0 g and 28.7 g and 31.6 g | Relative body weight [4, 15]: 101.3% and 105.1% and 102.2% and 107.3% (2×) and 103.1% and 105.8% and 98.1% and 102.6% and 104.0% | Absolute tumor volume: (a*b*b)/2 [4, 16]: 893.3 mm3 and 1083.3 mm3 and 715.5 mm3 and 1030.4 mm3 and 1961.1 mm3 and 772.8 mm3 and 1472.3 mm3 and 1618.7 mm3 and 1461.9 mm3 and 550.0 mm3 and 958.8 mm3 and 609.2 mm3 and 712.9 mm3 and 874.7 mm3 | Relative tumor volume [4, 16]: 1511.3% and 762.1% and 894.7% and 760.5% and 750.4% and 826.5% and 1236.5% and 1836.0% and 1316.0% and 1309.9% and 739.6% and 437.1% and 1101.7% and 474.0%
